Results reported in patent publication US8415272B2, “Quinoline derivatives and their use as fungicides” (Syngenta Crop Protection LLC, priority 2008, dated 2013).

Key:
Septoria nodorum = assay: Leaf disk assay, Septoria nodorum (wheat glume blotch), preventive; format: in vivo; settings: Parastagonospora nodorum, foliar, 96 h, wheat leaf segments, assessed four days after inoculation, read-out: control of fungal infection, Septoria nodorum
Phytophthora infestans = assay: whole plant or invertebrate; format: in vivo; settings: in Solanum lycopersicum, foliar, 96 h, read-out: control of fungal infection, Phytophthora infestans
Septoria tritici = assay: Growth inhibition in nutrient broth, Septoria tritici (leaf blotch), photometric; format: cell-based; settings: Zymoseptoria tritici, PDB broth, 24 C, 72 hrs, read-out: control of fungal infection, Septoria tritici
Fusarium culmorum = assay: Growth inhibition in nutrient broth, Fusarium culmorum (root rot), photometric; format: cell-based; settings: 48 h, read-out: control of fungal infection, Fusarium culmorum
Summary of the method: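 Fusarium culmorum conidia in potato dextrose broth were added to compounds in DMSO. Plates were incubated at 24 C for 48 hrs, with growth inhibition read photometrically. […]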

Pyrenophora teres = assay: Leaf disk assay, Pyrenophora teres (barley net blotch), preventive; format: in vivo; settings: foliar, 96 h, barley leaf segments, assessed four days after inoculation, read-out: control of fungal infection, Pyrenophora teres
Summary of the method: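 Barley leaf segments on agar were sprayed with compound at 200 ppm (from DMSO stock diluted in water) and dried for 12-24 h before inoculation with a Pyrenophora teres spore suspension. Preventive fungicidal activity was scored 4 days after inoculation.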

Pyricularia oryzae = assay: whole plant or invertebrate; format: in vivo; settings: foliar, 96 h, read-out: control of fungal infection, Pyricularia oryzae
Plasmopara viticola = assay: Leaf disk assay, Plasmopara viticola (downy mildew of grapevine), preventive; format: in vivo; settings: foliar, 168 h, grapevine leaf disks, assessed seven days after inoculation, read-out: control of fungal infection, Plasmopara viticola
Pythium ultimum = assay: Growth inhibition in potato dextrose broth, Pythium ultimum (damping off), photometric; format: cell-based; settings: Globisporangium ultimum, 24° C., 48 hours, read-out: control of fungal infection, Pythium ultimum
Summary of the method: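 Growth inhibition was read photometrically at 48 hours after incubation at 24° C. Test compound was diluted from DMSO to 20 ppm in water and combined with potato dextrose broth seeded with Pythium ultimum mycelial fragments.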

Botrytis cinerea = assay: Leaf disk assay, Botrytis cinerea (grey mould) on bean, preventive; format: in vivo; settings: foliar, 96 h, bean leaf disks, assessed four days after inoculation, read-out: control of fungal infection, Botrytis cinerea
[1] = system: Erysiphe graminis f.sp. tritici; assay: Leaf disk assay, Erysiphe graminis f.sp. tritici (wheat powdery mildew), preventive; format: in vivo; settings: Blumeria graminis, foliar, 96 h, wheat leaf segments, assessed four days after inoculation, read-out: control of fungal infection, Erysiphe graminis f.sp. tritici
Summary of the method: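 Preventive protocol: compound at 200 ppm in water (from DMSO) sprayed onto wheat leaf segments on agar, dried 12–24 h, then spore-inoculated. Fungicidal activity was assessed four days post-inoculation.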

[2] = system: Puccinia recondita f.sp. tritici; assay: Leaf disk assay, Puccinia recondita f.sp. tritici (wheat brown rust), preventive; format: in vivo; settings: foliar, 216 h, wheat leaf segments, assessed nine days after inoculation, read-out: control of fungal infection, Puccinia recondita f.sp. tritici

C#Cc1cnc2c(C)cc(OC(SC)C(=O)NC(C)(C)C#C)cc2c1 (stereo not shown) [Example 7]
≥ 60%: pest or weed control at 200 ppm (Septoria nodorum) | pest or weed control at 200 ppm (Phytophthora infestans) | inhibition of growth at 60 ppm (Septoria tritici) | inhibition of growth at 60 ppm (Fusarium culmorum) | pest or weed control at 200 ppm (Pyrenophora teres) | pest or weed control at 200 ppm (Pyricularia oryzae) | pest or weed control at 200 ppm (Plasmopara viticola) | inhibition of growth at 20 ppm (Pythium ultimum)

C#Cc1cnc2c(C)cc(OC(SC)C(=O)NC(C)(C)C#CC)cc2c1 (stereo not shown) [Example 8]
≥ 60%: pest or weed control at 200 ppm (Botrytis cinerea) | pest or weed control at 200 ppm (Septoria nodorum) | pest or weed control at 200 ppm (Phytophthora infestans) | inhibition of growth at 60 ppm (Septoria tritici) | inhibition of growth at 60 ppm (Fusarium culmorum) | pest or weed control at 200 ppm (Pyrenophora teres) | pest or weed control at 200 ppm (Pyricularia oryzae) | pest or weed control at 200 ppm (Plasmopara viticola) | inhibition of growth at 20 ppm (Pythium ultimum)

C#Cc1cnc2c(C)cc(OC(SC)C(=O)NC(C)(C)C#CCOC)cc2c1 (stereo not shown) [Example 9]
≥ 60%: pest or weed control at 200 ppm [1] | pest or weed control at 200 ppm (Septoria nodorum) | pest or weed control at 200 ppm (Phytophthora infestans) | inhibition of growth at 60 ppm (Septoria tritici) | inhibition of growth at 60 ppm (Fusarium culmorum) | pest or weed control at 200 ppm (Pyricularia oryzae) | pest or weed control at 200 ppm (Plasmopara viticola) | pest or weed control at 200 ppm [2] | inhibition of growth at 20 ppm (Pythium ultimum)

C#Cc1cnc2c(C)cc(OC(SC)C(=O)NC(C)(C)COC)cc2c1 (stereo not shown) [Example 13]
≥ 60%: pest or weed control at 200 ppm (Botrytis cinerea) | pest or weed control at 200 ppm [1] | pest or weed control at 200 ppm (Septoria nodorum) | pest or weed control at 200 ppm (Phytophthora infestans) | inhibition of growth at 60 ppm (Septoria tritici) | inhibition of growth at 60 ppm (Fusarium culmorum) | pest or weed control at 200 ppm (Pyrenophora teres) | pest or weed control at 200 ppm (Pyricularia oryzae) | pest or weed control at 200 ppm (Plasmopara viticola) | pest or weed control at 200 ppm [2] | inhibition of growth at 20 ppm (Pythium ultimum)

C#CCOCC(C)(C)NC(=O)C(Oc1cc(C)c2ncc(C#C)cc2c1)SC (stereo not shown) [Example 14]
≥ 60%: pest or weed control at 200 ppm (Botrytis cinerea) | pest or weed control at 200 ppm [1] | pest or weed control at 200 ppm (Septoria nodorum) | pest or weed control at 200 ppm (Phytophthora infestans) | inhibition of growth at 60 ppm (Septoria tritici) | inhibition of growth at 60 ppm (Fusarium culmorum) | pest or weed control at 200 ppm (Pyrenophora teres) | pest or weed control at 200 ppm (Pyricularia oryzae) | pest or weed control at 200 ppm (Plasmopara viticola) | pest or weed control at 200 ppm [2] | inhibition of growth at 20 ppm (Pythium ultimum)

C#CCC(C)(C)NC(=O)C(Oc1cc(C)c2ncc(C#C)cc2c1)SC (stereo not shown) [Example 16]
≥ 60%: pest or weed control at 200 ppm [1] | pest or weed control at 200 ppm (Septoria nodorum) | pest or weed control at 200 ppm (Phytophthora infestans) | inhibition of growth at 60 ppm (Septoria tritici) | inhibition of growth at 60 ppm (Fusarium culmorum) | pest or weed control at 200 ppm (Pyrenophora teres) | pest or weed control at 200 ppm (Pyricularia oryzae) | pest or weed control at 200 ppm (Plasmopara viticola) | pest or weed control at 200 ppm [2] | inhibition of growth at 20 ppm (Pythium ultimum)
